According to ChEMBL document CHEMBL1201862, “PubChem BioAssay data set” (2004):
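Following 48 hours of exposure in 96-well plates, responses at five concentrations were used to interpolate endpoints linearly. The concentration for 50% growth inhibition is given as GI50.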 Active and inactive are the calls of the source. Cut-off read from the data, not from the text of the source: active = GI50 up to about 1.1 µM and inactive = higher.

Columns and labels:
Experiment in all cases: NCI-60 cell line screen, 48 h
786-0 = tested on: 786-0
A498 = tested on: A498
A549 = tested on: A549
ACHN = tested on: ACHN
CCRF-CEM = tested on: CCRF-CEM
COLO 205 = tested on: COLO 205
DLD-1 = tested on: DLD-1
DMS-114 = tested on: DMS-114
DMS-273 = tested on: DMS-273
EKVX = tested on: EKVX
HCC 2998 = tested on: HCC 2998
HCT-116 = tested on: HCT-116
HCT-15 = tested on: HCT-15
HL-60 = tested on: HL-60
HOP-18 = tested on: HOP-18
HOP-62 = tested on: HOP-62
HT-29 = tested on: HT-29
IGROV-1 = tested on: IGROV-1
K562 = tested on: K562
KM12 = tested on: KM12
LOX IMVI = tested on: LOX IMVI
LXFL 529 = tested on: LXFL 529
M14 = tested on: M14
M19-MEL = tested on: M19-MEL
MOLT-4 = tested on: MOLT-4
Malme-3M = tested on: Malme-3M
NCI-H226 = tested on: NCI-H226
NCI-H23 = tested on: NCI-H23
NCI-H460 = tested on: NCI-H460
NCI-H522 = tested on: NCI-H522
OVCAR-3 = tested on: OVCAR-3
OVCAR-4 = tested on: OVCAR-4
OVCAR-5 = tested on: OVCAR-5
OVCAR-8 = tested on: OVCAR-8
RPMI-8226 = tested on: RPMI-8226
SF-268 = tested on: SF-268
SF-295 = tested on: SF-295
SF-539 = tested on: SF-539
SK-MEL-28 = tested on: SK-MEL-28
SK-MEL-2 = tested on: SK-MEL-2
SK-MEL-5 = tested on: SK-MEL-5
SK-OV-3 = tested on: SK-OV-3
SN12C = tested on: SN12C
SNB-19 = tested on: SNB-19
SNB-75 = tested on: SNB-75
SNB-78 = tested on: SNB-78
SR = tested on: SR
SW-620 = tested on: SW-620
TK-10 = tested on: TK-10
UACC-257 = tested on: UACC-257
UACC-62 = tested on: UACC-62
UO-31 = tested on: UO-31
XF498 = tested on: XF498
CAKI-1 = tested on: CAKI-1
HOP-92 = tested on: HOP-92
KM-20L2 = tested on: KM-20L2
U-251 = tested on: U-251
RXF 393 = tested on: RXF 393

CCCCC(N)CSSCC(N)CCCC (stereo not drawn) was tested, and the GI50 (786-0) was 17.9 µM (inactive), the GI50 (A498) was 25.8 µM (inactive) and the GI50 (A549) was 52 µM (inactive). The GI50 (ACHN) was 34.4 µM (inactive), the GI50 (CCRF-CEM) was 20.3 µM (inactive) and the GI50 (COLO 205) was 52.7 µM (inactive). For the same compound, the GI50 (DLD-1) was 21.6 µM (inactive), the GI50 (DMS-114) was 17.7 µM (inactive) and the GI50 (DMS-273) was 23.4 µM (inactive). The GI50 (EKVX) was 25.2 µM (inactive), the GI50 (HCC 2998) was 19 µM (inactive) and the GI50 (HCT-116) was 17.8 µM (inactive). The GI50 (HCT-15) was 26.2 µM, the GI50 (HL-60) was 16.4 µM (inactive) and the GI50 (HOP-18) was > 100 µM (inactive). For the same compound, the GI50 (HOP-62) was 27.3 µM (inactive), the GI50 (HT-29) was 23.7 µM (inactive) and the GI50 (IGROV-1) was 50.8 µM (inactive). For the same compound, the GI50 (K562) was 19.4 µM (inactive), the GI50 (KM12) was 49.2 µM (inactive) and the GI50 (LOX IMVI) was 17.6 µM (inactive). The GI50 (LXFL 529) was 16.8 µM (inactive), the GI50 (M14) was 17.9 µM (inactive) and the GI50 (M19-MEL) was 26.2 µM (inactive). For the same compound, the GI50 (MOLT-4) was 19.2 µM (inactive), the GI50 (Malme-3M) was 18.1 µM (inactive) and the GI50 (NCI-H226) was 23.5 µM (inactive). For the same compound, the GI50 (NCI-H23) was 24.8 µM (inactive), the GI50 (NCI-H460) was 36.7 µM (inactive) and the GI50 (NCI-H522) was 15 µM (inactive). The GI50 (OVCAR-3) was 20.8 µM (inactive), the GI50 (OVCAR-4) was 18.2 µM (inactive) and the GI50 (OVCAR-5) was 20.5 µM (inactive). The GI50 (OVCAR-8) was 37.8 µM (inactive), the GI50 (RPMI-8226) was 25.1 µM (inactive) and the GI50 (SF-268) was 26.9 µM (inactive). The GI50 (SF-295) was 33.3 µM (inactive), the GI50 (SF-539) was 23.7 µM (inactive) and the GI50 (SK-MEL-28) was 17.7 µM (inactive). The GI50 (SK-MEL-2) was 17.2 µM (inactive), the GI50 (SK-MEL-5) was 22.9 µM (inactive) and the GI50 (SK-OV-3) was 57.1 µM (inactive). For the same compound, the GI50 (SN12C) was 19.5 µM (inactive), the GI50 (SNB-19) was 58.5 µM (inactive) and the GI50 (SNB-75) was 30.6 µM (inactive). The GI50 (SNB-78) was 32.7 µM (inactive), the GI50 (SR) was 17.5 µM (inactive) and the GI50 (SW-620) was 23.2 µM (inactive). For the same compound, the GI50 (TK-10) was > 100 µM (inactive), the GI50 (UACC-257) was 20.5 µM (inactive) and the GI50 (UACC-62) was 21.1 µM (inactive). For the same compound, the GI50 (UO-31) was 21.4 µM (inactive) and the GI50 (XF498) was 20.3 µM (inactive).

COc1cccc(C2C(C(=O)O)=C(CO)Oc3cc4c(cc32)OCO4)c1 (stereo not drawn) was tested, and the GI50 (A498) was > 100 µM (inactive), the GI50 (ACHN) was > 100 µM (inactive) and the GI50 (CAKI-1) was > 100 µM (inactive). For the same compound, the GI50 (CCRF-CEM) was > 100 µM (inactive), the GI50 (COLO 205) was > 100 µM (inactive) and the GI50 (DLD-1) was > 100 µM (inactive). The GI50 (DMS-114) was > 100 µM (inactive), the GI50 (EKVX) was > 100 µM (inactive) and the GI50 (HCT-15) was over 100 µM. The GI50 (HL-60) was > 100 µM (inactive), the GI50 (HOP-18) was > 100 µM (inactive) and the GI50 (HOP-92) was > 100 µM (inactive). For the same compound, the GI50 (HT-29) was > 100 µM (inactive), the GI50 (IGROV-1) was > 100 µM (inactive) and the GI50 (K562) was > 100 µM (inactive). The GI50 (KM-20L2) was > 100 µM (inactive), the GI50 (LOX IMVI) was > 100 µM (inactive) and the GI50 (LXFL 529) was > 100 µM (inactive). For the same compound, the GI50 (M14) was > 100 µM (inactive), the GI50 (M19-MEL) was > 100 µM (inactive) and the GI50 (MOLT-4) was > 100 µM (inactive). For the same compound, the GI50 (Malme-3M) was > 100 µM (inactive), the GI50 (NCI-H226) was > 100 µM (inactive) and the GI50 (NCI-H23) was > 100 µM (inactive). The GI50 (NCI-H460) was > 100 µM (inactive), the GI50 (NCI-H522) was > 100 µM (inactive) and the GI50 (OVCAR-3) was > 100 µM (inactive). For the same compound, the GI50 (OVCAR-8) was > 100 µM (inactive), the GI50 (RPMI-8226) was > 100 µM (inactive) and the GI50 (SF-268) was > 100 µM (inactive). The GI50 (SF-295) was > 100 µM (inactive), the GI50 (SF-539) was > 100 µM (inactive) and the GI50 (SK-MEL-28) was > 100 µM (inactive). For the same compound, the GI50 (SK-MEL-2) was > 100 µM (inactive), the GI50 (SK-MEL-5) was > 100 µM (inactive) and the GI50 (SK-OV-3) was > 100 µM (inactive). For the same compound, the GI50 (SN12C) was > 100 µM (inactive), the GI50 (SNB-19) was > 100 µM (inactive) and the GI50 (SNB-75) was > 100 µM (inactive). The GI50 (SNB-78) was > 100 µM (inactive), the GI50 (SW-620) was > 100 µM (inactive) and the GI50 (TK-10) was > 100 µM (inactive). For the same compound, the GI50 (U-251) was > 100 µM (inactive), the GI50 (UACC-62) was > 100 µM (inactive) and the GI50 (UO-31) was > 100 µM (inactive). The GI50 (XF498) was 36.5 µM (inactive).

Cc1nn(C)c(=S)n(C)c1=O was tested, and the GI50 (786-0) was 3.27 µM (inactive), the GI50 (A498) was 3.22 µM (inactive) and the GI50 (A549) was 0.439 µM (active). The GI50 (ACHN) was 0.387 µM (active), the GI50 (CCRF-CEM) was 1.55 µM (inactive) and the GI50 (COLO 205) was 4.16 µM (inactive). The GI50 (DLD-1) was 3.16 µM (inactive), the GI50 (DMS-114) was 0.269 µM (active) and the GI50 (DMS-273) was 0.427 µM (active). For the same compound, the GI50 (EKVX) was 4.83 µM (inactive), the GI50 (HCC 2998) was 4.1 µM (inactive) and the GI50 (HCT-116) was 0.416 µM (active). The GI50 (HCT-15) was 3.76 µM, the GI50 (HL-60) was 1.31 µM (inactive) and the GI50 (HOP-18) was 0.43 µM (active). For the same compound, the GI50 (HOP-62) was 1.81 µM (inactive), the GI50 (HOP-92) was 0.291 µM (active) and the GI50 (HT-29) was 24.8 µM (inactive). For the same compound, the GI50 (IGROV-1) was 1 µM (active), the GI50 (K562) was 0.343 µM (active) and the GI50 (KM-20L2) was 24.9 µM (inactive). For the same compound, the GI50 (LOX IMVI) was 1.79 µM (inactive), the GI50 (LXFL 529) was 0.515 µM (active) and the GI50 (M14) was 0.773 µM (active). The GI50 (M19-MEL) was 0.624 µM (active), the GI50 (MOLT-4) was 1.29 µM (inactive) and the GI50 (Malme-3M) was 2.89 µM (inactive). For the same compound, the GI50 (NCI-H226) was 7.53 µM (inactive), the GI50 (NCI-H23) was 0.483 µM (active) and the GI50 (NCI-H460) was 0.394 µM (active). The GI50 (NCI-H522) was 0.275 µM (active), the GI50 (OVCAR-3) was 4.19 µM (inactive) and the GI50 (OVCAR-4) was 5.83 µM (inactive). The GI50 (OVCAR-5) was 2.26 µM (inactive), the GI50 (OVCAR-8) was 0.571 µM (active) and the GI50 (RPMI-8226) was 0.556 µM (active). For the same compound, the GI50 (RXF 393) was 0.498 µM (active), the GI50 (SF-268) was 0.56 µM (active) and the GI50 (SF-295) was 0.571 µM (active). The GI50 (SF-539) was 0.83 µM (active), the GI50 (SK-MEL-28) was 0.571 µM (active) and the GI50 (SK-MEL-2) was 0.733 µM (active). The GI50 (SK-OV-3) was 14.7 µM (inactive), the GI50 (SN12C) was 0.927 µM (active) and the GI50 (SNB-19) was 0.802 µM (active). The GI50 (SNB-75) was 0.329 µM (active), the GI50 (SNB-78) was 3.18 µM (inactive) and the GI50 (SW-620) was 1.79 µM (inactive). The GI50 (TK-10) was 4.69 µM (inactive), the GI50 (U-251) was 1.75 µM (inactive) and the GI50 (UACC-257) was 1.05 µM (active). The GI50 (UACC-62) was 0.757 µM (active), the GI50 (UO-31) was 0.229 µM (active) and the GI50 (XF498) was 1.15 µM (inactive).
